Series [1] concerns iHeps in iMPCCs.
Series [2] concerns primary hepatocytes (HUM4011).
For series [3] the following is noted: total human plasma concentration; cited from earlier work.
For series [4], the system named is primary human hepatocytes in MPCCs. As to conditions: (ref 19), cited from earlier work; for TC50 in MPCCs ATP: concentration at which activity decreases by 50% of DMSO-only controls.
The conditions of series [5]: negative number: withdrawn from the market; higher positive numbers: greater DILI concern; cited from earlier work.
The test system of series [6] is iHeps in iMPCCs. Description: Drug toxicity screening in iMPCCs (albumin, ATP, urea; binary decision and TC50).

Where a name gives a salt, the structure may show the parent alone. Read-outs that look alike come from different tables or passages of the source.

For `CC(=O)Nc1ccc(O)cc1` [Acetaminophen], in the series with iMPCCs, the “albumin production in iMPCCs” value is “declined significantly” and the “urea production in iMPCCs” value is given as “declined significantly”.
For `CC(=O)Nc1nnc(S(N)(=O)=O)s1` [Acetazolamide], the “Model predictions iMPCC (binary decision)” value (“Model predictions iMPCC” below) with iHeps in iMPCCs [1] was “−”. Besides, the “toxicity call in another donor of primary hepatocytes” value (from here on “toxicity call in another donor”) in series [2] is reported as “false negative”. For the same molecule, the Cmax in series [3] was 135 µM.
As to `CC(=O)Oc1ccccc1C(=O)O` [Aspirin], in the series on iHeps in iMPCCs [1], the “Model predictions iMPCC” value was “−”. In the series with iHeps in iCCs, the “Model predictions iCC (binary decision)” value is given as “−”. Further, in the series on iMPCCs, the “albumin production in iMPCCs” value was “minimally affected” and the “urea production in iMPCCs” value is “minimally affected”. Also, the Cmax in series [3] is 5.53 µM.
As for `CCc1oc2ccccc2c1C(=O)c1cc(Br)c(O)c(Br)c1` [Benzbromarone], in series [4], the “TC50 in MPCCs Albumin” value is 31.3 µM, the “TC50 in MPCCs Urea” value is 27.9 µM and the “TC50 in MPCCs ATP” value was 15.1 µM. Moreover, the “DILI Sev (DILI severity scores from the LTKB of the FDA)” value (“DILI Sev” for short) in series [5] is on record as −2. Further, the Cmax in series [3] was 4.36 µM.
Consider `CNCCc1ccccn1.Cl.Cl` [Betahistine 2HCl], for which the “Model predictions iMPCC” value in the series on iHeps in iMPCCs [1] is reported as “−”. Further, in series [5], the “DILI Sev” value is recorded as 6. Besides, in series [3], the highest concentration (Cmax) was 0.004 µM.
In the case of `O=C1CC2(CCCC2)CC(=O)N1CCCCN1CCN(c2ncccn2)CC1` [Buspirone], in series [5], the “DILI Sev” value is 3. In series [3], the maximum concentration (Cmax) was 0.005 µM.
Turning to `O=P1(N(CCCl)CCCl)NCCCO1` (stereo not shown) [Cyclophosphamide], in series [4], the “TC50 in MPCCs Albumin” value was 1449.4 µM, the “TC50 in MPCCs Urea” value was 1746.0 µM and the “TC50 in MPCCs ATP” value was 6165.0 µM. The Cmax in series [3] was 265 µM. In addition, in the series with iHeps in iMPCCs [6], the “TC50 in MPCCs Albumin” value was determined as 18670.7 µM.
With `CC(=O)O[C@]1(C(C)=O)CC[C@H]2[C@@H]3C=C(Cl)C4=CC(=O)[C@@H]5C[C@@H]5[C@]4(C)[C@H]3CC[C@@]21C` [Cyproterone acetate], in the series with iHeps in iMPCCs [1], the “toxicity call in iMPCCs / iHeps” value was “toxic”. Also, in the series with iHeps in iMPCCs [1] (human, 6 days), the “TC50 in MPCCs Albumin” value was 51.0 µM and the “TC50 in MPCCs Urea” value was found to be 33.1 µM. In the series on iHeps in iCCs, the “Model predictions iCC (binary decision)” value is “−” and the “toxicity call in iCCs” value is given as “non-toxic”. Moreover, in series [4], the “TC50 in MPCCs Urea” value is 41.0 µM and the “TC50 in MPCCs ATP” value was 39.1 µM. For the same molecule, the Cmax in series [3] was 0.656 µM.
Regarding `Nc1ccc(S(=O)(=O)c2ccc(N)cc2)cc1` [Dapsone], in the series with iHeps in iMPCCs [1], the “Model predictions iMPCC” value is “−” and the “toxicity call in iMPCCs / iHeps” value is recorded as “false negative result”. Also, the “toxicity call in another donor” value in series [2] is “false negative”. The Cmax in series [3] was 6.01 µM.
Turning to `C[C@@H]1C[C@H]2[C@@H]3CCC4=CC(=O)C=C[C@]4(C)[C@@]3(F)[C@@H](O)C[C@]2(C)[C@@]1(O)C(=O)CO` [Dexamethasone], the “Model predictions iMPCC” value in the series with iHeps in iMPCCs [1] is “−”. The “Model predictions iCC (binary decision)” value in the series on iHeps in iCCs was “−”. Further, in series [5], the “DILI Sev” value is on record as 3. For the same molecule, the Cmax in series [3] is 0.224 µM.
For `CC(C(=O)O)c1ccc(-c2ccccc2)c(F)c1` (stereo not shown) [Flurbiprofen], the “comparison of urea TC50 values, iHeps versus primary hepatocytes” value with iHeps in iMPCCs [1] (human, 6 days) is reported as “higher TC50 in iHeps”. In series [4], the “TC50 in MPCCs Albumin” value is 2406.8 µM, the “TC50 in MPCCs Urea” value is 2459.0 µM and the “TC50 in MPCCs ATP” value was 3351.1 µM. Besides, the “DILI Sev” value in series [5] is on record as 3. Besides, the Cmax in series [3] was 57.4 µM. In the series with iHeps in iMPCCs [6], the “TC50 in MPCCs Albumin” value amounted to 5683.4 µM.
With `CN(C)CCCN1c2ccccc2CCc2ccccc21` [Imipramine HCl], the “DILI Sev” value in series [5] is given as 3.
With `O=C(O)/C=C\C(=O)O` [Maleic acid], the “Model predictions iMPCC” value in the series with iHeps in iMPCCs [1] is reported as “−”. Further, the “toxicity call in another donor” value in series [2] is on record as “borderline positive”. Further, the peak concentration (Cmax) in series [3] is 1 µM.
On to `Cc1cccc(Nc2ccccc2C(=O)O)c1C` [Mefenamic acid], for which, in the series on iHeps in iMPCCs [1] (human, 6 days), the “TC50 in MPCCs ATP” value came out at 2551.9 µM, the “TC50 in MPCCs Albumin” value amounted to 410.3 µM and the “TC50 in MPCCs Urea” value was found to be 572.3 µM. In addition, in series [4], the “TC50 in MPCCs Albumin” value was 1291.9 µM, the “TC50 in MPCCs Urea” value is 1255.1 µM and the “TC50 in MPCCs ATP” value was 1393.4 µM. The maximum concentration (Cmax) in series [3] was 27 µM.
On to `CNCCC=C1c2ccccc2CCc2ccccc21` [Nortriptyline HCl], for which, in series [5], the “DILI Sev” value is on record as 8. Besides, the peak concentration (Cmax) in series [3] is 0.122 µM.
Regarding `CCOc1ccc(NC(C)=O)cc1` [Phenacetin], in the series with iHeps in iMPCCs [1] (human, 6 days), the “TC50 in MPCCs Albumin” value stood at 1213.3 µM and the “TC50 in MPCCs Urea” value was found to be 253.3 µM. In addition, in the series with iHeps in iCCs, the “Model predictions iCC (binary decision)” value is reported as “−” and the “toxicity call in iCCs” value was “not identified as toxic”. In addition, in series [4], the “TC50 in MPCCs Urea” value is 1076.1 µM. In series [3], the Cmax was 13.4 µM.
Turning to `CN1C(C(=O)Nc2ccccn2)=C(O)c2ccccc2S1(=O)=O` [Piroxicam], the “toxicity call in iMPCCs / iHeps” value in the series with iHeps in iMPCCs [1] was “toxic”. Also, the “DILI Sev” value in series [5] is recorded as 3. Further, the Cmax in series [3] is 5.13 µM.
In the case of `NC(=O)c1cnccn1` [Pyrazinamide], in the series with iHeps in iMPCCs [1], the “toxicity call in iMPCCs / iHeps” value is given as “toxic”. For the same molecule, in the series on iHeps in iMPCCs [1] (human, 6 days), the “TC50 in MPCCs Albumin” value amounted to 33457.5 µM. Moreover, in the series on iHeps in iCCs, the “Model predictions iCC (binary decision)” value was “−” and the “toxicity call in iCCs” value is “non-toxic”. Moreover, in series [4], the “TC50 in MPCCs Albumin” value is 20420.3 µM, the “TC50 in MPCCs Urea” value was 14781.6 µM and the “TC50 in MPCCs ATP” value was 19695.5 µM. Also, in series [5], the “DILI Sev” value is on record as 3. Also, the maximum concentration (Cmax) in series [3] is 407 µM.
As to `C=C[C@H]1C[N@@]2CC[C@H]1C[C@H]2[C@H](O)c1ccnc2ccc(OC)cc12` [Quinine], in the series on iHeps in iMPCCs [1] (human, 6 days), the “TC50 in MPCCs ATP” value is 182.2 µM, the “TC50 in MPCCs Albumin” value worked out at 115.7 µM and the “TC50 in MPCCs Urea” value was 127.9 µM. In series [4], the “TC50 in MPCCs Albumin” value was 251.6 µM, the “TC50 in MPCCs Urea” value was 285.2 µM and the “TC50 in MPCCs ATP” value is 259.1 µM. For the same molecule, in series [3], the highest concentration (Cmax) is 9.25 µM.
For `CC/C(=C(\c1ccccc1)c1ccc(OCCN(C)C)cc1)c1ccccc1` [Tamoxifen], in the series on iHeps in iMPCCs [1] (human, 6 days), the “TC50 in MPCCs Albumin” value stood at 4.2 µM and the “TC50 in MPCCs Urea” value came to 11.7 µM. Also, in the series on iHeps in iCCs, the “Model predictions iCC (binary decision)” value is reported as “−”. In series [4], the “TC50 in MPCCs Albumin” value was 3.2 µM, the “TC50 in MPCCs Urea” value was 3.9 µM and the “TC50 in MPCCs ATP” value was 15.8 µM. In series [3], the Cmax was 0.162 µM.
Regarding `O=c1n(CCCN2CCN(c3cccc(Cl)c3)CC2)nc2ccccn12` [Trazodone HCl], in the series with iHeps in iMPCCs [1] (human, 6 days), the “TC50 in MPCCs ATP” value was 351.5 µM, the “TC50 in MPCCs Albumin” value turned out to be 205.5 µM and the “TC50 in MPCCs Urea” value came out at 272.4 µM. In series [4], the “TC50 in MPCCs Albumin” value was 64.8 µM, the “TC50 in MPCCs Urea” value is 121.8 µM and the “TC50 in MPCCs ATP” value was 201.7 µM. Besides, the Cmax in series [3] is 5.07 µM.
Consider `Cc1c(C)c2c(c(C)c1O)CCC(C)(COc1ccc(CC3SC(=O)NC3=O)cc1)O2` (stereo not shown) [Troglitazone], for which, in the series with iMPCCs, the “albumin production in iMPCCs” value was “declined significantly” and the “urea production in iMPCCs” value is “declined significantly”. The “DILI Sev” value in series [5] was −2.
Regarding `Cc1ccc(C(=O)c2cc(O)c(O)c([N+](=O)[O-])c2)cc1` [tolcapone], the “albumin secretions in iMPCCs, toxicity over time and dose” value in the series with iHeps in iMPCCs [1] was “time- and dose-dependent toxicities”. In addition, in the series with iMPCCs, the “albumin production in iMPCCs” value was “declined significantly” and the “urea production in iMPCCs” value was “declined significantly”.

For orientation: Cmax means the highest concentration seen after dosing.

The record behind these values is patent US10266806B2, “Stem cell-derived hepatocytes in co-culture and uses thereof” (Colorado State University Research Foundation, priority 2014, dated 2019).
